From the OligoGym collection come the findings set out here.

After the bases stand the sugars from the 5' end (letter, count) and the backbone: PS all phosphorothioate, else s phosphorothioate and o phosphodiester by linkage. Methylation of C is not given here. e = 2'-O-(2-methoxyethyl) (MOE); k = constrained ethyl (cEt); d = 2'-deoxy (DNA); m = 2'-O-methyl

In this data set the target is HSD17B13. The note with it: ASO, HepaRG.

The sequence AAAAATTGGCCTCCTG (sugars k3 d10 k3, PS) displayed a target mRNA inhibition (1 µM) of 41%. Take AAAACATTGCTCTTCG (sugars k3 d10 k3, PS): for the setting “1 µM”, the target mRNA inhibition was found to be 59%. The same measure, in the same setting: the figure for AAAACCGTCAAATAGG (sugars k3 d10 k3, PS) is 28%; for AAAACTTCACCAACGA (sugars k3 d10 k3, PS) it is 29%. On the same count and under the same terms, the figure for “AAAATAGAGTCGGTCA (sugars kkdddddddddkekek, PS)” is 53%; for AAAATCGCTGCTTAGT (sugars k3 d10 k3, PS) it is 35%. As for AAAATTATGCCTTGTG (sugars k3 d10 k3, PS), the target mRNA inhibition (1 µM) is 50%. Still for that read-out and setting: the figure for “AAACAAGAGGATAGTC (sugars kkkdddddddkdkkke, PS)” is 45%. Take AAACATCTCTGGGACC (sugars k3 d10 k3, PS): the target mRNA inhibition amounted to 0% (0.02 µM); 0% (0.078 µM); 33% (0.313 µM); 56% (1.25 µM); 78% (5 µM). For AAACCTTCATGCTAGT (sugars k3 d10 k3, PS), where the note is “1 µM”, the target mRNA inhibition worked out at 27%.

AAACCTTGAATGAGTG (sugars k3 d10 k3, PS) registered a target mRNA inhibition (1 µM) of 37%. Regarding AAAGCCCTATTCTTCG (sugars k3 d10 k3, PS), the target mRNA inhibition (1 µM) came to 65%. On to AAAGTTAGTTGGGCGA (sugars k3 d10 k3, PS), for which the target mRNA inhibition (1 µM) stood at 26%.

AAATCTTGTGTAACTG (sugars k3 d10 k3, PS) had a target mRNA inhibition (1 µM) of 41%. The same measure, in the same setting: the figure for AAATTATTGCCTGAAC (sugars k3 d10 k3, PS) is 32%; for AAATTCATAAGTAGTC (sugars k3 d10 k3, PS) it is 39%; for AAATTGGCCTCCTGGG (sugars k3 d10 k3, PS) it is 44%. Sequence AAATTGGTTTCGAATC (sugars k3 d10 k3, PS) came in with a target mRNA inhibition (1 µM) of 32%. On the same count and under the same terms, to AAATTTGCTGGAACTG (sugars k3 d10 k3, PS) belongs 15%. The same measure, in the same setting: the figure for AAATTTGTGAACCTGC (sugars k3 d10 k3, PS) is 26%; for AACAATCAGGAGTTGC (sugars k3 d10 k3, PS) it is 31%.

AACACTAATCTCAGTA (sugars k3 d10 k3, PS): the target mRNA inhibition (1 µM) was determined as 15%. With “AACAGTCTTAAACCTT (sugars k3 d1 m1 d8 k3, PS)”, where the note is “1 µM”, the target mRNA inhibition is 75%. On the same count and under the same terms, to “AACATCTCTGGGACCA (sugars k3 d9 k3 e1, PS)” belongs 61%; to AACCTATGTGTGCACC (sugars k3 d10 k3, PS), 73%.

Turning to AACCTTTGTTGCCTGG (sugars k3 d10 k3, PS), the target mRNA inhibition (1 µM) came out at 36%. Where the note is “1 µM”, AACGACTCCAAGTAGG (sugars k3 d10 k3, PS) came in with a target mRNA inhibition of 27%. For AACTACAAGAGGTTAT (sugars k3 d10 k3, PS), for the setting “1 µM”, the target mRNA inhibition was 57%. Still for that read-out and setting: to AACTACATGACCTGGG (sugars k3 d10 k3, PS) belongs 27%. The same measure, in the same setting: the figure for AACTAGTGGTAATGGT (sugars k3 d10 k3, PS) is 32%; for AACTCTAAATACCCTT (sugars k3 d10 k3, PS) it is 28%; for AACTCTATTGATTGGC (sugars k3 d10 k3, PS) it is 72%. Same read-out and setting: the figure for AACTGAAGGTCTGAGC (sugars k3 d10 k3, PS) is 55%; for AACTTCACCAACGACT (sugars k3 d10 k3, PS) it is 0%. “AACTTCATAGTGGACT (sugars kkdddddddddkekek, PS)” showed a target mRNA inhibition (1 µM) of 68%.

For AAGAAATTTGTGAACC (sugars k3 d10 k3, PS), the target mRNA inhibition (1 µM) came out at 21%. For “AAGACATTCTAGCCTG (sugars k3 d9 k3 e1, PS)”, the target mRNA inhibition (1 µM) is 40%. On the same count and under the same terms, to “AAGATACCCAGGTTGC (sugars k3 d9 k3 e1, PS)” belongs 69%; to “AAGATACCCAGGTTGC (sugars kkdddddddddkekek, PS)”, 59%. Same read-out and setting: the figure for AAGATTAGTCTTGATG (sugars k3 d10 k3, PS) is 25%.

For AAGCTTTGCAGCATTG (sugars k3 d10 k3, PS), the target mRNA inhibition (1 µM) is 59%. Same read-out and setting: to AAGGAGTAGTGGAGCC (sugars k3 d10 k3, PS) belongs 38%. Turning to AAGGTTAGATTTCATC (sugars k3 d10 k3, PS), the target mRNA inhibition came out at 1% (0.02 µM); 14% (0.078 µM); 60% (0.313 µM); 80% (1 µM); 64% (1.25 µM); 78% (5 µM). AAGTAGATGGTAAGTC (sugars k3 d10 k3, PS): the target mRNA inhibition stood at 7% (0.02 µM); 42% (0.078 µM); 67% (0.313 µM); 85% (1 µM); 89% (1.25 µM); 95% (5 µM). As for AAGTTACCAGAGCATT (sugars k3 d10 k3, PS), the target mRNA inhibition by setting is: (0.02 µM) 0%; (0.078 µM) 5%; (0.313 µM) 45%; (1 µM) 70%; (1.25 µM) 80%; (5 µM) 90%. Sequence “AAGTTAGCCCCCAGGA (sugars k3 d9 k3 e1, PS)” came in with a target mRNA inhibition (1 µM) of 23%.

On to AAGTTTGTTAGAGTGC (sugars k3 d10 k3, PS), for which the target mRNA inhibition (1 µM) was found to be 74%. On the same count and under the same terms, to AAGTTTTGGGACCAAT (sugars k3 d10 k3, PS) belongs 11%; to “AATAATAGCTCTATTG (sugars k3 d9 k3 e1, PS)”, 3%; to AATACAGGATAGAGCA (sugars k3 d10 k3, PS), 0%. On the same count and under the same terms, the figure for AATACGACTTCCTTCT (sugars k3 d10 k3, PS) is 26%; for AATACTCCCCAATTGC (sugars k3 d10 k3, PS) it is 0%; for “AATAGAGTCGGTCACC (sugars k3 d9 k3 e1, PS)” it is 58%.

Under “1 µM”, AATAGAGTTGCACCGT (sugars k3 d10 k3, PS) gave a target mRNA inhibition of 48%. The same measure, in the same setting: the figure for “AATAGCCAGTACAGTT (sugars k3 d1 m1 d8 k3, PS)” is 66%. Same read-out and setting: the figure for AATAGTCTTCAGCAAA (sugars k3 d10 k3, PS) is 48%. Same read-out and setting: the figure for AATATGTCCAGGTTGA (sugars k3 d10 k3, PS) is 64%. With “AATATTGAGGCACTGG (sugars k3 d9 k3 e1, PS)”, the target mRNA inhibition (1 µM) came out at 36%. Same read-out and setting: the figure for “AATCCCAACCAAACTT (sugars kkdddddddddkekek, PS)” is 17%; for AATGAATCATGATTGA (sugars k3 d10 k3, PS) it is 33%. In turn, AATGAGGCGGCACTCA (sugars k3 d10 k3, PS) came in with a target mRNA inhibition (1 µM) of 20%.

In turn, “AATGCTACTTGAACAG (sugars k3 d1 m1 d8 k3, PS)” yielded a target mRNA inhibition (1 µM) of 34%.

Under “1 µM”, AATGCTACTTGAACAG (sugars k3 d10 k3, PS) gave a target mRNA inhibition of 54%. Take AATGTAAGAAGCCACG (sugars k3 d10 k3, PS): where the note is “1 µM”, the target mRNA inhibition was found to be 26%. Sequence AATTATTTCTTGCGAG (sugars k3 d10 k3, PS) gave a target mRNA inhibition (1 µM) of 16%. On the same count and under the same terms, to “AATTCACCTTGACTAA (sugars k3 d1 m1 d8 k3, PS)” belongs 0%; to “AATTCACCTTGACTAA (sugars kkdddddddddkekek, PS)”, 9%. Same read-out and setting: to AATTCTATAGCTAAGT (sugars k3 d10 k3, PS) belongs 9%; to AATTGTCTAAACATCT (sugars k3 d10 k3, PS), 62%; to AATTTATTTGCTGGTC (sugars k3 d10 k3, PS), 27%. Still for that read-out and setting: the figure for AATTTCATACAGTTCG (sugars k3 d10 k3, PS) is 66%; for ACAACCCTTAACAAAC (sugars k3 d10 k3, PS) it is 26%. In turn, ACAAGAGGATAGTCCA (sugars k3 d10 k3, PS) showed a target mRNA inhibition (1 µM) of 64%. ACAATATGGGATGAGG (sugars k3 d10 k3, PS): the target mRNA inhibition is, setting by setting: (0.02 µM) 29%; (0.078 µM) 7%; (0.313 µM) 43%; (1 µM) 71%; (1.25 µM) 65%; (5 µM) 85%. As for ACAATCAGGAGTTGCA (sugars k3 d10 k3, PS), under “1 µM”, the target mRNA inhibition amounted to 62%. Same read-out and setting: to “ACACTAATATTGAGGC (sugars k3 d9 k3 e1, PS)” belongs 68%. Turning to ACACTAATATTGAGGC (sugars k3 d10 k3, PS), the target mRNA inhibition was found to be 28% (0.02 µM); 32% (0.078 µM); 37% (0.313 µM); 68% (1 µM); 58% (1.25 µM); 85% (5 µM).

Regarding ACACTAATCTCAGTAC (sugars k3 d10 k3, PS), the target mRNA inhibition (1 µM) was found to be 6%. Same read-out and setting: to ACAGAACCAATATGCT (sugars k3 d10 k3, PS) belongs 40%. On the same count and under the same terms, the figure for ACAGACTAAGGGACCA (sugars k3 d10 k3, PS) is 68%; for ACAGAGAATTGTTTAG (sugars k3 d10 k3, PS) it is 39%; for ACAGAGTTATTGTAGG (sugars k3 d10 k3, PS) it is 58%. Consider ACAGGTAATTAATCTT (sugars k3 d10 k3, PS), for which the target mRNA inhibition (1 µM) is 39%. The same measure, in the same setting: to ACAGTTCCTTTTCCTG (sugars k3 d10 k3, PS) belongs 58%.
